According to US12144792B2, “Therapeutic agents for neurodegenerative diseases” (priority 2016, dated 2024):

Experiments:
[1] = test system: patients with ataxia with oculomotor apraxia type 4; assay: Case study, report of the patients'; type: in vivo, human; conditions: Ex. 18, youngest sibling, AOA4; reported by parent
From the text: In this case study, four patients (male siblings) suffered from, and were later diagnosed with, ataxia with oculomotor apraxia type 4. The older three siblings […], at the time of disease onset. […] The older siblings began treatment with acetyl-leucine […], respectively, and have been on the treatment for approximately four years. No long-term clinical data is available for these three patients.
The youngest sibling was […] at the time of onset. […] No long-term clinical data is available for the youngest sibling.

[2] = test system: patient with frontotemporal dementia with parkinsonism; assay: Case study, clinical examination; type: in vivo, human
From the text: After approximately one month of acetyl-leucine treatment, medication was stopped and the patient was re-examined 13 days later.

[3] = test system: Sandhoff disease patient fibroblasts; assay: Glycosphingolipid (GSL) levels via HPLC; type: cell-based, human; conditions: 1 mM for 6 days
[4] = test system: patient with GM1 Gangliosidosis; assay: Case study, patient evaluation (SARA, mRDS, EQ-5D-5L); type: in vivo, human; conditions: Ex. 6, GM1 Gangliosidosis; 1.5 then 3 g per day; after one month
From the text: Before treatment was commenced, examination of the patient indicated a Scale for Assessment and Rating of Ataxia (SARA) score of 35/40, a mRDS score of 15, and a EQ-5D-5L visual scale of 50. The patient was started on therapy with acetyl-leucine at a dose of 1.5 g per day for the first week, followed by a dose of 3 g per day for the second week onwards.

[5] = test system: patients with cerebellar ataxia; conditions: cited from earlier work
[6] = test system: amyloid precursor protein C-terminal fragments (APP-CTFs); assay: APP-CTF levels relative to total APP in the cerebellum; type: in vivo, mouse; conditions: NPC1−/− mice, 0.1 g/kg body weight daily from 3 weeks of age; sacrificed at 8 weeks
Experimental: The Niemann-Pick Disease Type C (NPC) mouse model shares a number of pathological features with Alzheimer's disease (AD) as described herein. […] Mice were sacrificed at 8 weeks of age. Levels of amyloid precursor protein C-terminal fragments (APP-CTFs) were evaluated relative to total amyloid precursor protein (APP) levels in the cerebellum for wild type, untreated wild type NPC1^−/− mice, and AL-treated wild type NPC1^−/− mice. Levels of microtubule-associated protein 1A/1B-light chain 3-phosphatidylethanolamine conjugate (LC3-II) were also evaluated relative to levels of tubulin loading control for wild type, untreated wild type NPC1^−/− mice, and AL-treated wild type NPC1^−/− mice.

[7] = test system: Mucolipidosis Type IIIA (MLIIIA) patient fibroblasts; assay: Lysosomal volume via LysoTracker; type: cell-based, human; conditions: 1 mM, 6 days, vs untreated
patients with ataxia = patients with ataxia (Becker-Bense et al. 2015); cited from earlier work
[8] = test system: patients with multisystemic atrophy cerebellar type (MSA-C); assay: Case studies, clinical examination; type: in vivo, human
[9] = test system: patients with multiple system atrophy Parkinson type (MSA-P); assay: Case studies, clinical examination; type: in vivo, human
From the text: Medication was stopped. […] The patient evaluated after one month on acetyl-DL-leucine. […] Episodes of mental confusion completely disappeared. The patient's cognitive structure seemed much clearer and straighter. […] The patient's spouse supported continuing the medication.

[10] = test system: patient with Lewy Body dementia; assay: Case study, clinical evaluation; type: in vivo, human; conditions: Ex. 17, Lewy Body dementia; 3 g/day one week, 5 g/day thereafter; after four weeks
Experimental: The patient started taking acetyl-leucine (3 g/day for one week; 5 g/day thereafter) and was evaluated after four weeks. […] Medication was reduced to 3 g/day, and the patient was instructed to stop medication about two weeks later.

[11] = test system: 12 patients with Niemann-Pick Type C (NPC); conditions: one-month study, 12 NPC patients (Bremova et al. 2015); cited from earlier work
[12] = test system: patient with downbeat nystagmus; assay: Gait analysis; type: in vivo, human; conditions: Ex. 12 Patient 2
From the text: Medication was then suspended. About one month after stopping acetyl-DL-leucine treatment, the patient's symptomatology worsened.

[13] = test system: patients with progressive supranuclear palsy; assay: Case studies, clinical examination; type: in vivo, human; conditions: 3 then 5 g per day; for gait and hypokinetic rigid syndrome: 17 days
Experimental: After 27 days of acetyl-leucine treatment, medication was stopped and the patient was re-examined 60 days later. […] Gait analysis was performed before treatment commenced. After 17 days of treatment, medication was stopped and the patient was re-examined 4 days later. […] Gait analysis was performed before treatment commenced. After three weeks of treatment, medication was stopped and the patient was re-examined.

[14] = test system: patients with downbeat nystagmus; assay: Case studies, clinical examination (visual acuity, posturography); type: in vivo, human
From the text: The patient was diagnosed with downbeat nystagmus: the patient was severely impaired by blurred vision (oscillopsia) due to the nystagmus, and experienced difficulties while reading and writing. The patient's visual acuity was: right 0.75, left 0.67, binocular 0.83, and the downbeat nystagmus was documented by video-oculography. […] […] […] The patient was able to suppress the nystagmus by visual fixation. In addition, the patient's spatial orientation was improved.

[15] = Ex. 12 Patient 1, approximately 14 weeks after starting

## CC(=O)NC(CC(C)C)C(=O)O (racemic) [acetyl-DL-leucine]
[1]
  fine motor skills and speech compared to older siblings: improved fine motor skills and improved speech
[2]; Ex. 9, frontotemporal dementia with parkinsonism, 3 then 5 gram per day, approximately one month
  gait: significant improvement of gait
[2]; Ex. 9, under therapy
  speech: improvement of speech
[2]; Ex. 9, under therapy, before 2-3 falls per month
  falls: the patient's falls stopped
[3]
  GSL levels: trend towards decreased GSL levels
[4]
  symptoms on re-examination: stable general condition, increased gait (more fluent), and stable stance in natural position
[5]; another case series (Pelz et al. 2015)
  benefit in cerebellar ataxia: did not find benefit
[5]; case series with cerebellar patients (Strupp et al. 2013)
  cerebellar ataxia symptoms: symptomatic improvement of cerebellar ataxia
[5]; quantitative gait analysis (Schniepp et al. 2015)
  temporal gait variability: improved temporal gait variability
[6]
  APP-CTF levels relative to total APP in the cerebellum: lowering of APP-CTFs
[7]
  LysoTracker fluorescence (lysosomal volume): trend in reducing LysoTracker fluorescence
Patients with ataxia
  brain metabolism (PET): increased metabolism in the midbrain and lower brainstem in responders
[8]; Ex. 8 Patient 1, MSA-C, 5 g per day, after one week
  speech: significant improvement in speech
[8]; Ex. 8 Patient 2, MSA-C, 3 then up to 5 gram per day, after 3 weeks
  gait: significant improvement of gait
[8]; Ex. 8 Patient 2, MSA-C, after 3 weeks, before approximately 10 falls a month
  falls: the falls completely stopped
[8]; Ex. 8 Patient 2, MSA-C, one week after stopping
  symptoms after stopping medication: deterioration of gait and dizziness
[9]; Ex. 13 Patient 1, MSA-P, 3 g/day first week, 5 g/day thereafter, after 3 weeks
  symptoms: no significant improvement of gait, reduction of falls or improved hypokinetic rigid-syndrome
[9]; Ex. 13 Patient 2, MSA-P, 3 then 5 g per day, after one month
  symptoms: subjective improvement of dizziness
[9]; Ex. 13 Patient 3, MSA-P, 3 then 5 g per day, after one month, reported by the patient's spouse
  cognitive function: significant improvement of cognitive function
[9]; Ex. 13 Patient 3, MSA-P, after one month
  gait function: no improvement of gait function
[10]
  patient-reported symptoms: increased fatigue and a deterioration of balance and speech
[11]
  ataxia symptoms: symptomatic improvement of ataxia
[12]; about one month after stopping treatment, decrease from 85
  self-chosen velocity: 72 cm/s
[12]; on treatment, increase from 56
  self-chosen velocity: 85 cm/s
[13]; Ex. 11 Patient 1, PSP, 27 days
  dizziness and gait: significant reduction of dizziness and slight improvement of gait
[13]; Ex. 11 Patient 2, PSP
  gait and hypokinetic rigid syndrome: no significant improvement of gait or hypokinetic rigid syndrome
[13]; Ex. 11 Patient 3, PSP
  gait and hypokinetic rigid syndrome: no significant improvement of gait or hypokinetic rigid syndrome
[13]; Ex. 11 Patient 4, PSP, after three weeks
  gait and falls: gait with increased subjective security and with reduced frequency of falls
[14]; Ex. 12 Patient 1, downbeat nystagmus, 3 then 5 gram per day, after 10 days
  patient-reported benefit: significant benefit
[14]; [15]
  nystagmus, clinical examination by two independent examiners: reduction of the nystagmus
  posturography: reduction of postural sway
[14]; Ex. 12 Patient 1, continued treatment at 5 gram per day
  side-effects: no side-effects resulted
[14]; Ex. 12 Patient 2, downbeat nystagmus, 3 g/day first week, 5 g/day thereafter
  symptoms: improvement of gait
